Data on twelve compounds can be found in PubChem BioAssay (NCI).

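A five-concentration, 48-hour dose response in 96-well plates underlies each endpoint, interpolated linearly between surrounding concentrations. Here, GI50 denotes the concentration required for 50% inhibition of growth. TGI denotes the concentration required for complete inhibition of growth.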

Usually GI50 stands for the concentration giving 50% growth inhibition. The TGI is the concentration giving total growth inhibition. Read a low TGI as more potent growth arrest.

What all share (test): DTP human tumour cell line panel, 48 h
The test system of assay [1] is UO-31 renal.
The subject of assay [2] is NCI-H226 lung.
Assay [3] has as its system HCT-116 colon.
Assay [4] has as its system UACC-62 melanoma.
The test system of assay [5] is HCT-15 colon.
Assay [6] concerns SK-MEL-2 melanoma.
Assay [7] has as its system SK-MEL-28 melanoma.
In assay [8] the test system is HOP-92 NSCLC.
In assay [9] the test system is A498 renal.
Assay [10] concerns SF-539 CNS.

With `CCCCC#Cc1c(I)n(C2OC(CO[Si](C)(C)C(C)(C)C)C3OC(C)(C)OC32)c(=O)[nH]c1=O` (stereo not drawn), the GI50 is 1.53 µM in [1]; 12.7 µM in assay [2]; 5.52 µM in [3]; 11.8 µM in assay [4]; 2 µM in assay [5]; 1.37 µM in assay [6]. In addition, the GI50 is 1.84 µM in assay [7], 3.04 µM in [8] and 13.3 µM in [9]. Further, the TGI in [1] is 11.2 µM; in assay [2] it was 25.6 µM; in assay [3], 17.9 µM; in assay [4] it was 24 µM; in assay [5], over 100 µM; in assay [6], 3.58 µM. Further, the TGI in [7] was determined as 4.3 µM; in assay [8] it was 8.08 µM; in [9] it was 26 µM.

On to `COc1cc2c3c(c1OC)C1(C=CC(=O)C=C1)CC3N(C(=O)OC(C)(C)C(Cl)(Cl)Cl)CC2` (stereo not drawn), for which the concentration for total growth inhibition (TGI) in [10] is 30.4 µM; in [1] it was 28.5 µM; in assay [2] it was 33.1 µM; in assay [3], 19 µM; in assay [4] it was 28.4 µM; in assay [5], 23.6 µM. In addition, the total growth inhibition concentration (TGI) in assay [6] amounted to 25.2 µM; in [8], 29.8 µM; in assay [9] it was 31.9 µM.

In the case of `COC1=C(C(=O)OC(C)(C)C)C23CCCCC2(C(C(=O)OC(C)(C)C)=C(OC)C3C(=O)OC(C)(C)C)C1C(=O)OC(C)(C)C` (stereo not drawn), the TGI in [10], in assay [1], in [2], in assay [3], in assay [4] and in [5] was over 100 µM each time. Besides, the total growth inhibition concentration (TGI) was over 100 µM in [6], 89.5 µM in assay [8] and over 100 µM in assay [9].

As to `CC(C)(C)NC(=O)C12C3C4C1C1C2C3C41I` (stereo not drawn), the total growth inhibition concentration (TGI) in assay [10], in assay [1], in assay [2], in assay [3], in [5] and in assay [6] was over 100 µM in each case. The TGI in [7], in [8] and in assay [9] was over 100 µM each time.

For `CC(=O)OCC1OC(n2c(-c3ccc(N)cc3)cc(-c3ccco3)c(C#N)c2=O)C(OC(C)=O)C(OC(C)=O)C1OC(C)=O` (stereo not drawn), the TGI in assay [10] was 30.2 µM; in [1] it was over 50 µM; in assay [3], over 50 µM; in assay [4], over 50 µM; in assay [5] it was over 50 µM; in assay [6], over 50 µM. Besides, the TGI in assay [7] is over 50 µM; in [8] it was 33.9 µM; in assay [9], over 50 µM.

As to `COc1cc(OC)c(Oc2cccc(OC)c2OC)c(OC)c1`, the TGI in [10], in assay [1], in assay [2], in assay [3], in [4] and in [6] was over 100 µM each time. Moreover, the TGI in assay [7], in assay [8] and in assay [9] was over 100 µM in each case.

As for `O=C(Nc1ccc(Cl)cc1Cl)c1c/c(=N\O)c2ccc(O)cc2o1`, the concentration for total growth inhibition (TGI) in assay [10], in [1], in assay [2], in [3], in assay [4] and in assay [5] was over 100 µM in each case. Further, the TGI in assay [7], in assay [8] and in [9] was over 100 µM each time.

On to `S=c1sc2ccccc2n1CN1CCN(Cc2ccccc2)CC1`, for which the total growth inhibition concentration (TGI) in assay [10], in [1], in [2], in assay [3], in [4] and in assay [5] was over 100 µM in each case. Further, the total growth inhibition concentration (TGI) in assay [6], in assay [8] and in assay [9] was over 100 µM throughout.

With `O=C(/C=C/c1ccccc1O)CC(=O)/C=C/c1ccccc1O`, the TGI in [10] came out at 15.7 µM; in assay [1] it was 12.6 µM; in [3] it was 7.42 µM; in assay [4], 7.58 µM; in [5], 19.9 µM; in [6] it was 17 µM. Besides, the results for the TGI in assay [7], in [8] and in assay [9] were over 31.6 µM, 53.7 µM and 51.3 µM, respectively.

For the compound `C=CC[n+]1c(/C=C2\Sc3ccccc3N2C)sc(-c2ccccc2)c1-c1ccccc1`, the GI50 in assay [10] was 0.411 µM; in assay [1] it was 1.61 µM; in assay [2], 0.258 µM; in assay [3], 0.36 µM; in assay [5], 2.18 µM; in assay [7], 0.421 µM. The GI50 in [8] is 0.155 µM; in assay [9] it was 0.264 µM. Moreover, the TGI came to 12.5 µM in assay [10]; 4.4 µM in assay [1]; 0.977 µM in assay [2]; 11.5 µM in assay [3]; 13.4 µM in assay [5]; 7.72 µM in assay [7]. Moreover, the total growth inhibition concentration (TGI) in [8] was 0.571 µM; in [9], 2.32 µM.

For the compound `COc1cc2c(cc1OC)[C@@H]1[C@H](C2=O)c2ccc([N+](=O)[O-])cc2C(=O)N1CCCBr`, the GI50 in assay [10] was 0.387 µM; in [2], 0.281 µM; in assay [3] it was under 0.01 µM; in assay [4] it was under 0.046 µM; in [5], 0.369 µM; in [6] it was 4.62 µM. The results for the GI50 in assay [7], in assay [8] and in assay [9] were 2.54 µM, 3.15 µM and 0.666 µM, respectively. In addition, the TGI was 2.29 µM in [10]; 1.24 µM in assay [2]; 0.0133 µM in [3]; 1.16 µM in assay [4]; 9.27 µM in assay [5]; over 100 µM in assay [6]. Also, the TGI in assay [7] was over 100 µM; in assay [8], over 100 µM; in assay [9], 2.14 µM.

Take `COc1ccc(-c2cc(-c3ccco3)c(C#N)c(=O)n2C2OC(OC(=O)c3ccccc3)C(OC(=O)c3ccccc3)C2OC(=O)c2ccccc2)cc1` (stereo not drawn): the total growth inhibition concentration (TGI) in [10], in assay [1], in assay [2], in [3], in assay [5] and in assay [6] was over 100 µM in each case. Further, the values for the TGI in assay [7], in [8] and in [9] were over 100 µM, 54.5 µM and over 100 µM, respectively.
